Numbered stars: 1 amine (or outer) side, 2 acyl side, 3 side chain; on linkers, the order of the positions; unused ones are H or OH. Bridge positions count the residues as written; N and C are the ends. Square brackets hold non-standard residues; d marks the D form. Peptide text beside a SMILES is read from it. I, II: the chains in the order shown. Actinocin(9to1) = Cc1c2oc3c(C)ccc(C(=O)[*:1])c3nc-2c(C(=O)[*:2])c(N)c1=O; NMeV = CN[C@H](C(=O)O)C(C)C; Sar = CNCC(=O)O
What was measured:
[1] = system: BUBR1 mRNA; assay: BUBR1 mRNA stability assay with Actinomycin D; format: cell-based, human; conditions: Fig. 4h, +Act D (shCtrl+Act D or shPTBP1#1+Act D), shCtrl = 1
Description: RNA preparation was performed as described. Total RNA was extracted using Trizol reagent (TaKaRa) following the manufacturer’s instructions. cDNA was generated with M-MLV reverse transcriptase (Promega, catalog no. M170B). Reverse transcription with PCR (RT-PCR) was performed with SYBR Green Real-Time PCR Master Mix (TaKaRa). RT-PCR was carried out on a QuantStudio 3 Real-Time-PCR Instrument (ABI). Data were analyzed and further processed in QuantStuido Design and Analysis Software and GraphPad Prism v.7. Fold change in gene expression over control samples was calculated using the 2^–ΔΔCt method, where β-actin Ct values were used as an internal control. The primer sequences for PCR, synthesized by Comate Bioscience, were as follows: […]

[2] = system: IMR90 and HGADFN003 cells; assay: Metaphase chromosome spread assay, aneuploid cells; format: cell-based, human
Description: For the metaphase chromosome spread assay, 1.5 × 10^6 cells were seeded in a 6 cm dish and incubated for 24 h with fresh medium. Then, colchicine was added to a final concentration of 0.2 μg ml^–1 and the cells were incubated at 37 °C for 2 h. After digestion, we collected and rinsed the cells with PBS. The cells were centrifuged at 160g for 10 min. Then, 1 M KCl was added to a final concentration of 0.075 mol l^–1 and the samples were incubated at 37 °C for 20 min. The cells were centrifuged, and the supernatant aspirated. The pellet was resuspended, and 1 ml methanol:glacial acetic acid (3:1) solution was added. The sample was rested at room temperature for 10 min. Then, the cells were centrifuged at 160g for 10 min. The supernatant was aspirated, and the pellet resuspended in 1 ml fixative for 30 min. The cells were centrifuged and the pellet was suspended in 1 ml fixative again for 30 min. The cells were centrifuged at 160g for 10 min and the supernatant aspirated. The pellet was then resuspended in a small volume of fixative (typically less than 500 μl) until the cell suspension appeared lightly milky. A small quantity of the cell suspension was held vertically in a pipette with the end about 10 cm above the slide. A single drop was released from this height onto the slide and allowed to air dry. The cells were then incubated with 500 nM of DAPI (Invitrogen) for 10 min. Slides were examined with an Olympus BX53 fluorescence microscope and the images were captured by using the Olympus IPP v.7.0 software. Aneuploid cells were quantified by investigators who were blinded to the identity of the analyzed cell.

[3] = system: HGADFN003 cells; assay: SA-β-gal staining of HGADFN003 cells; format: cell-based, human; conditions: Fig.1m, HGADFN003, Vector 65, 68, 69, 65, P<0.0001
Description: (§1) SA-β-gal staining was performed as previously described. Cells were fixed in 0.5% glutaraldehyde for 15 min at room temperature, washed three times with PBS (pH 6.0) containing 1 mM MgCl2 and exposed overnight 37 °C to containing 1 mg ml^–1 5-bromo-4-chloro-3-indolyl-β-D-galactopyranoside (MCE, catalog no. HY-15934), 0.12 mM potassium ferrocyanide (Sigma, catalog no. P3289), 0.12 mM potassium ferricyanide (Sigma, catalog no. P8131) and 1 mM MgCl2 PBS buffer (pH 6.0). Cells were washed three times with H2O and observed under a microscope (OLYMPUS CKX53). SA-β-gal positive cells were quantified by investigators who were blinded to the identity of the analyzed cell.

[4] = system: IMR90 cells; assay: SA-β-gal staining of IMR90 cells (progerin, BUBR1, shBUBR1); format: cell-based, human; conditions: Fig.1i
Description: as §1

[5] = system: IMR90 cells; assay: Ki67 immunofluorescence of IMR90 cells; format: cell-based, human; conditions: Fig.1k, IMR90
Description: (§2) Immunofluorescence was performed as described previously. Cells were plated on cover slips in 12-well plates, left overnight before the treatment. Cells were fixed in 1% formaldehyde in culture medium for 10 min at 37 °C and permeabilized with 0.2% Triton X-100 in PBS for 10 min at room temperature. Cells were washed twice in PBS and blocked for 1 h with 5% BSA in PBS and then incubated with primary antibodies at 4 °C overnight, washed three times in PBS and incubated with secondary antibodies for 1 h at room temperature. Cell nuclei were counterstained with a 500 nM concentration of 4,6-diamidino-2-phenylindole (DAPI) (Sigma). Images were acquired by a fluorescence microscope (OLYMPUS FV-1000, Carl Zeiss LSM880 or Leica DMi8) and analyzed with software NIS-Elements AR v.5.0.1 (Nikon), FLUOVIEW v.4.2b (OLYMPUS), ZEN v.2.3 SP1 (Carl Zeiss) and Leica Application Suite X v.3.6.0.24 (Leica). Cells were quantified by investigators who were blinded to the identity of the analyzed cell.

[6] = system: HGADFN003 cells; assay: Ki67 immunofluorescence of HGADFN003 cells; format: cell-based, human; conditions: Fig.1o, HGADFN003, Vector 45, 38, 49, P=0.0031
Description: as §2

[7] = system: PTBP1–BUBR1 mRNA 3′-UTR; assay: RIP assay of PTBP1 and BUBR1 mRNA 3′-UTR in HEK-293T cells; format: cell-based
Description: RIP and RNA pulldown assays were performed as previously described. The RIP experiment was carried out using the EZ-Magna RIP Kit (Millipore, catalog no. 17-701). The coprecipitated RNAs were extracted through Trizol reagent and detected by RT-PCR. The primer sequences for PCR, synthesized by Comate Bioscience, were as follows:
BUBR1-3′UTR_fwd (5′-[…]-3′) and BUBR1-3′UTR_rev (5′- […]-3′).

[8] = system: BUBR1 mRNA 3ʹ-UTR; assay: Luciferase activity assay of BUBR1 mRNA 3ʹ-UTR in HEK-293T cells; format: cell-based; conditions: Fig. 4k, Vector = 1, P=0.0012
Description: The experiments were performed as described previously. The BUBR1 (–1,200 to +100) promoter or the DNA fragment of BUBR1 mRNA 3′-UTR was inserted into the pGL4.20 vector. Cells were plated in 24-well plates. After 24 h, cells were cotransfected with 200 ng of the indicated firefly luciferase reporter plasmid and 50 ng of Renilla luciferase normalization control plasmid using PEI. At 48 h after transfection, cell lysates were collected to measure luciferase activity using the Dual-Luciferase Reporter Assay System (Promega, catalog no. E1910) according to the manufacturer’s instructions. Luciferase reporter assay was carried out on an TD-20/20 Turner Designs luminometer, data were analyzed and further processed in Microsoft Excel and GraphPad Prism v.7.

[9] = system: progerin–BUBR1 interaction; assay: CoIP of progerin and BUBR1 in HEK-293T cells; format: cell-based; conditions: HEK-293T co-transfected with truncated mutants and HA-progerin
Description: Detailed descriptions of CoIP were described previously[55],[56]. Cells were harvested and washed three times in cold PBS, then lysed in CoIP buffer (25 mM Tris-HCl (pH 7.5), 150 mM KCl, 5 mM EDTA, and 0.5% NP-40) plus protease inhibitor cocktail tablet (Roche). Incubate on ice and shock lysates on the vortex shaker 15 times for 30 s each. Microcentrifuge in 12,000g for 15 min at 4 °C, collect the supernatant, and incubate with 3 μg primary antibodies with gentle shaking overnight at 4 °C, followed by adding 20–40 μl Pure Proteome Protein A/G Mix Magnetic Beads (Millipore, catalog no. […]02) for 3 h. Wash the beads three times with 1 ml CoIP buffer for 8 min each, resuspend in 50 μl 1× loading buffer, and incubate at 100 °C for 8 min. Throw beads away and analyze by immunoblotting.

With `Cc1c2oc3c(C)ccc(C(=O)N[C@@H]4C(=O)N[C@H](C(C)C)C(=O)N5CCC[C@H]5C(=O)N(C)CC(=O)N(C)[C@@H](C(C)C)C(=O)O[C@@H]4C)c3nc-2c(C(=O)N[C@@H]2C(=O)N[C@H](C(C)C)C(=O)N3CCC[C@H]3C(=O)N(C)CC(=O)N(C)[C@@H](C(C)C)C(=O)O[C@@H]2C)c(N)c1=O` [ActD] (I: T[dV]P[Sar][NMeV] / II: T[dV]P[Sar][NMeV]; ester I:1-I:C, II:1-II:C; linker I:N-II:N via Actinocin(9to1)) the “BUBR1 relative (to β-actin) mRNA level (2-ΔΔCt)” value ([1]; replicate 1) was 0.6794, the “BUBR1 relative (to β-actin) mRNA level (2-ΔΔCt)” value ([1]; replicate 2) was 0.7373 and the “BUBR1 relative (to β-actin) mRNA level (2-ΔΔCt)” value ([1]; replicate 3) was 0.615.

For BUBR1, the “Relative percentage of aneuploid cells” value ([2]; Fig.1p, IMR90, Vector 6, 5, 8, replicate 1) was 5%, the “Relative percentage of aneuploid cells” value ([2]; Fig.1p, IMR90, Vector 6, 5, 8, replicate 2) was 5% and the “Relative percentage of aneuploid cells” value ([2]; Fig.1p, IMR90, Vector 6, 5, 8, replicate 3) was 7%. For the same compound, the “Relative percentage of aneuploid cells” value ([2]; Fig.1p, IMR90, progerin+BUBR1, replicate 1) was 25%, the “Relative percentage of aneuploid cells” value ([2]; Fig.1p, IMR90, progerin+BUBR1, replicate 2) was 17% and the “Relative percentage of aneuploid cells” value ([2]; Fig.1p, IMR90, progerin+BUBR1, replicate 3) was 22%. For the same compound, the “Relative percentage of aneuploid cells” value ([2]; Fig.1q, HGADFN003, Vector 29, 35, 32, P=0.0053, replicate 1) was 21%, the “Relative percentage of aneuploid cells” value ([2]; Fig.1q, HGADFN003, Vector 29, 35, 32, P=0.0053, replicate 2) was 17% and the “Relative percentage of aneuploid cells” value ([2]; Fig.1q, HGADFN003, Vector 29, 35, 32, P=0.0053, replicate 3) was 14%. The “Relative percentage of SA-β-gal positive cells” value ([3]; replicate 1) was 48%, the “Relative percentage of SA-β-gal positive cells” value ([3]; replicate 2) was 49% and the “Relative percentage of SA-β-gal positive cells” value ([3]; replicate 3) was 50%. The “Relative percentage of SA-β-gal positive cells” value ([3]; replicate 4) was 42%, the “Relative percentage of SA-β-gal positive cells” value ([4]; Vector 2, 1, 2, P vs Vector: BUBR1 0.2302, progerin 0.0003, replicate 1) was 3% and the “Relative percentage of SA-β-gal positive cells” value ([4]; Vector 2, 1, 2, P vs Vector: BUBR1 0.2302, progerin 0.0003, replicate 2) was 2%. For the same compound, the “Relative percentage of SA-β-gal positive cells” value ([4]; Vector 2, 1, 2, P vs Vector: BUBR1 0.2302, progerin 0.0003, replicate 3) was 2%, the “Relative percentage of SA-β-gal positive cells” value ([4]; progerin+BUBR1, P=0.0026 vs progerin, replicate 1) was 15% and the “Relative percentage of SA-β-gal positive cells” value ([4]; progerin+BUBR1, P=0.0026 vs progerin, replicate 2) was 18%. The “Relative percentage of SA-β-gal positive cells” value ([4]; progerin+BUBR1, P=0.0026 vs progerin, replicate 3) was 20%, the “Relative percentage of Ki67 positive cells” value ([5]; Vector 67, 75, 60, P vs Vector: BUBR1 0.803, progerin 0.0018, replicate 1) was 64% and the “Relative percentage of Ki67 positive cells” value ([5]; Vector 67, 75, 60, P vs Vector: BUBR1 0.803, progerin 0.0018, replicate 2) was 78%. For the same compound, the “Relative percentage of Ki67 positive cells” value ([5]; Vector 67, 75, 60, P vs Vector: BUBR1 0.803, progerin 0.0018, replicate 3) was 65%, the “Relative percentage of Ki67 positive cells” value ([5]; progerin+BUBR1, P=0.0042 vs progerin, replicate 1) was 48% and the “Relative percentage of Ki67 positive cells” value ([5]; progerin+BUBR1, P=0.0042 vs progerin, replicate 2) was 51%. For the same compound, the “Relative percentage of Ki67 positive cells” value ([5]; progerin+BUBR1, P=0.0042 vs progerin, replicate 3) was 45%, the “Relative percentage of Ki67 positive cells” value ([6]; replicate 1) was 78% and the “Relative percentage of Ki67 positive cells” value ([6]; replicate 2) was 74%. The “Relative percentage of Ki67 positive cells” value ([6]; replicate 3) was 67%.

With PTBP1 the “PTBP1 enrichment on BUBR1-3'UTR (2-ΔΔCt)” value ([7]; Fig. 4i, IgG = 1, P=0.0086, replicate 1) was 21.8107, the “PTBP1 enrichment on BUBR1-3'UTR (2-ΔΔCt)” value ([7]; Fig. 4i, IgG = 1, P=0.0086, replicate 2) was 40.6928 and the “PTBP1 enrichment on BUBR1-3'UTR (2-ΔΔCt)” value ([7]; Fig. 4i, IgG = 1, P=0.0086, replicate 3) was 24.8579. The “PTBP1 enrichment on BUBR1-3'UTR (2-ΔΔCt)” value ([7]; Fig. 4n, PTBP1, Vector = 1, P<0.0001 vs Vector, replicate 1) was 12.7685, the “PTBP1 enrichment on BUBR1-3'UTR (2-ΔΔCt)” value ([7]; Fig. 4n, PTBP1, Vector = 1, P<0.0001 vs Vector, replicate 2) was 13.1604 and the “PTBP1 enrichment on BUBR1-3'UTR (2-ΔΔCt)” value ([7]; Fig. 4n, PTBP1, Vector = 1, P<0.0001 vs Vector, replicate 3) was 13.6473. The “Relative luciferase activity of BUBR1 3'UTR (PTBP1/Vector)” value ([8]; replicate 1) was 3.3, the “Relative luciferase activity of BUBR1 3'UTR (PTBP1/Vector)” value ([8]; replicate 2) was 4 and the “Relative luciferase activity of BUBR1 3'UTR (PTBP1/Vector)” value ([8]; replicate 3) was 3.

For “progerin-C36: truncated progerin-C, aa residues 579–614, used for the design of UPCP (YNLRSRTVLCGTCGQPADKASASGSGAQSPQNCSIM)”, the “block of progerin–BUBR1 binding by truncated progerin-C” value [9] was “could block the binding of progerin and BUBR1”.

From PMC10154249, “Unique progerin C-terminal peptide ameliorates Hutchinson–Gilford progeria syndrome phenotype by rescuing BUBR1” (Nature Aging, 2023)
